pIC50: −log10 of the molar value. In brackets after ≈: the same amount, converted by molar mass.
How the values were obtained:
[1] = system: Vancomycin intermediate-resistant Staphylococcus aureus Mu50; test: In vitro infectivity assay (MIC), Exp. Ex. 2-1; format: cell-based; details: Staphylococcus aureus, VISA; Gram-positive; microdilution, MIC after 24 h; read-out: MIC VISA Mu50
Method: (§1) The antibacterial activities were measured based on broth dilution techniques of international standards (Clinical Laboratory Standards Institute: CLSI). The activities were shown by minimum inhibitory concentrations (MICs) determined by inoculating the above-mentioned strains at a concentration of about 10^5 […] into Mueller-Hinton broth (manufactured by Difco) containing 0.85% NaCl in 96-well microplates and incubating the plates at 35° C. for 24 hours. Measurement was carried out three times.
(§2) The antibacterial activities of the compounds of the present invention against various strains such as vancomycin-resistant enterococci (VRE), vancomycin intermediate-resistant Staphylococcus aureus (VISA), methicillin-resistant Staphylococcus aureus (MRSA), and methicillin-sensitive Staphylococcus aureus (MSSA) were examined. Of the bacteria used in MIC measurement in this test example, clinical bacteria of MRSA (OM481 strain and OM584 strain) were supplied from Okayama University Hospital (Japan). An MRSA strain N315, a vancomycin intermediate-resistant Staphylococcus aureus (VISA) strain Mu50, and a methicillin-sensitive Staphylococcus aureus (MSSA) strain FDA 209P were used as controls. Vancomycin-resistant enterococcus (VRE) strains NCTC 12201 and FN-1 were supplied from the National Institute of Infectious Disease (Japan).

[2] = system: Vancomycin-resistant enterococci FN-1; test: In vitro infectivity assay (MIC), Exp. Ex. 2-1; format: cell-based; details: Enterococcus, VRE; Gram-positive; microdilution, MIC after 24 h; read-out: MIC VRE FN-1
Method: as §1, §2

[3] = system: Vancomycin-resistant enterococci NCTC 12201; test: In vitro infectivity assay (MIC), Exp. Ex. 2-1; format: cell-based; details: Enterococcus, NCTC 12201 / VRE; Gram-positive; microdilution, MIC after 24 h; read-out: MIC VRE NCTC 12201
Method: as §1, §2

[4] = system: Methicillin sensitive S. aureus 209P; test: In vitro infectivity assay (MIC), Exp. Ex. 2-1; format: cell-based, Staphylococcus aureus; details: Staphylococcus aureus, 209P / MSSA; Gram-positive; microdilution, MIC after 24 h; read-out: MIC MSSA 209P
Method in brief: (§3)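 CLSI broth microdilution in Mueller-Hinton broth with 0.85% NaCl, inoculum about 10^5 CUF/[…]. MIC read after 24 h at 35° C; each determination run three times.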

[5] = system: Methicillin-resistant S. aureus COL; test: In vitro infectivity assay (MIC), Exp. Ex. 2-1; format: cell-based, Staphylococcus aureus; details: Staphylococcus aureus, MRSA; Gram-positive; microdilution, MIC after 24 h
[6] = system: Methicillin-resistant S. aureus N315; test: In vitro infectivity assay (MIC), Exp. Ex. 2-1; format: cell-based, Staphylococcus aureus; details: Staphylococcus aureus, MRSA; Gram-positive; microdilution, MIC after 24 h; read-out: MIC MRSA N315
Method in brief: as §3

[7] = system: Methicillin-resistant S. aureus OM481; test: In vitro infectivity assay (MIC), Exp. Ex. 2-1; format: cell-based, Staphylococcus aureus; details: Staphylococcus aureus, MRSA; Gram-positive; microdilution, MIC after 24 h; read-out: MIC MRSA OM481
Method in brief: as §3

[8] = system: Methicillin-resistant S. aureus OM584; test: In vitro infectivity assay (MIC), Exp. Ex. 2-1; format: cell-based, Staphylococcus aureus; details: Staphylococcus aureus, MRSA; Gram-positive; microdilution, MIC after 24 h; read-out: MIC MRSA OM584
Method in brief: as §3

[9] = system: Streptococcus pneumoniae R6; test: In vitro infectivity assay (MIC), Exp. Ex. 2-1; format: cell-based; details: Streptococcus pneumoniae, R6; Gram-positive; microdilution, MIC after 24 h; read-out: MIC S. Pneumoniae R6
Escherichia coli K-12 = test: Antibacterial activity (MIC) against Gram-negative strains, microdilution; format: cell-based; details: K12, MIC after 24 h, read-out: MIC (Gram-nagative) K-12
Method in brief: (§4)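 CLSI broth microdilution in Mueller-Hinton broth with 0.85% NaCl, inoculum about 10^5 […]. Incubated 35° C for 24 hours; MIC taken as the minimum inhibitory concentration, measured three times.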

[10] = system: Pseodomonas aeruginosa PAOI; test: as above; format: cell-based; details: MIC after 24 h, read-out: MIC (Gram-nagative) PAO1
Method in brief: as §4

E. coli DNA gyrase = target: T1, E. coli DNA gyrase (Escherichia coli, UniProt P0AES4+P0AES6); test: DNA gyrase inhibition (supercoiling kit), Exp. Ex. 2-2; format: biochemical
T1 construct: purchased John Innes Enterprises #K0001
Method in brief: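 IC50 derived from gel electrophoresis separating supercoiled from relaxed DNA. Reactions ran 30 minutes at 37° C with 1 U gyrase, […] relaxed pBR322, 1 mM ATP and 4 mM MgCl2 in Tris-HCl buffer (pH 7.5), then stopped with EDTA-containing solution.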

[11] = target: T2, Escherichia coli Topoisomerase IV (Escherichia coli, UniProt P0AFI2+P20083); test: Topoisomerase IV inhibition (decatenation kit), Exp. Ex. 2-3; format: biochemical; details: decatenation of kDNA, 37° C., 30 minutes; read-out: IC50 (E. coli topoisomerase IV inhibitions)
T2 construct: purchased John Innes Enterprises
Method: (§5) Staphylococcus aureus Topoisomerase IV and Escherichia coli Topoisomerase IV were purchased from John Innes Enterprises. 1 unit of topoisomerase IV was cultured with 200 ng of kinetoplast DNA (kDNA) in 30 L of a reaction solution at 37° C. for 30 minutes under the conditions of 50 mM Tris-HCl (pH 7.5) (S. aureus)/50 mM HEPES-KOH (pH 7.6) (E. coli), 5 mM MgCl2 (S. aureus)/5 mM magnesium acetate (E. coli), 350 mM potassium glutamate (S. aureus)/100 mM potassium glutamate (E. coli), 5 mM dithiotheri (S. aureus)/10 mM dithiotheri (E. coli), 1.5 mM ATP (S. aureus)/1 mM ATP (E. coli), and 40% (w/v) glycerol. The reactions were stopped by adding 8 L of a reaction stop solution (40% sucrose, 100 mM Tris.HCl (pH 7.5), 1 mM EDTA, 0.5 mg/ml bromophenol blue). Agarose gel (1.0%) was poured into TAE (40 mM Tris acetate, 2 mM EDTA).

[12] = target: T3, Staphylococcus aureus Topoisomerase IV (Staphylococcus aureus, UniProt P0C1S7+P0C1U9); test: as above; format: biochemical
T3 construct: purchased John Innes Enterprises
Method: as §5

MRSA N315 = test: In vitro infectivity assay (MIC), broth dilution, Exp. Ex. 1-1; format: cell-based, Staphylococcus aureus; details: Staphylococcus aureus; MRSA N315; Mueller-Hinton broth, 35° C., 24 hours; read-out: MIC MRSA N315
Method: as §1
(§6) The antibacterial activities of the compounds of the present invention against various strains such as methicillin-resistant Staphylococcus aureus (MRSA), vancomycin intermediate-resistant Staphylococcus aureus (VISA), methicillin-sensitive Staphylococcus aureus (MSSA), and vancomycin-resistant enterococci (VRE) were examined. Of the bacteria used in MIC measurement in this test example, clinical bacteria of MRSA (OM481 strain and OM584 strain) were supplied from Okayama University Hospital (Japan). An MRSA strain N315, a vancomycin intermediate-resistant Staphylococcus aureus (VISA) strain Mu50, and a methicillin-sensitive Staphylococcus aureus (MSSA) strain FDA 209P were used as controls. Vancomycin-resistant enterococcus (VRE) strains NCTC 12201 and FN-1 were supplied from the National Institute of Infectious Disease (Japan).

MRSA OM481 = test: as above; format: cell-based, Staphylococcus aureus; details: Staphylococcus aureus; MRSA OM481; Mueller-Hinton broth, 35° C., 24 hours; read-out: MIC MRSA OM481
Method: as §1, §6

MRSA OM58 = test: as above; format: cell-based, Staphylococcus aureus; details: Staphylococcus aureus; MRSA OM58; Mueller-Hinton broth, 35° C., 24 hours; read-out: MIC MRSA OM58
Method: as §1, §6

MSSA FDA 209P = test: as above; format: cell-based, Staphylococcus aureus; details: Staphylococcus aureus; MSSA FDA 209P; Mueller-Hinton broth, 35° C., 24 hours; read-out: MIC MSS 209P
Method: as §1, §6

VISA Mu50 = test: as above; format: cell-based, Staphylococcus aureus; details: Staphylococcus aureus; VISA Mu50; Mueller-Hinton broth, 35° C., 24 hours; read-out: MIC VISA Mu50
Method: as §1, §6

VRE FN-1 = test: as above; format: cell-based, enterococci; details: Enterococcus; VRE FN-1; Mueller-Hinton broth, 35° C., 24 hours; read-out: MIC VRE FN-1
Method: as §1, §6

VRE NCTC12201 = test: as above; format: cell-based, enterococci; details: Enterococcus; VRE NCTC12201; Mueller-Hinton broth, 35° C., 24 hours; read-out: MIC VRE NCTC12201
Method: as §1, §6

[13] = target: T4, DNA gyrase of Escherichia coli (Escherichia coli, UniProt P0AES4+P0AES6); test: DNA gyrase inhibition (supercoiling assay kit), Exp. Ex. 1-2; format: biochemical; details: E. coli DNA gyrase supercoiling, relaxed pBR322, 37° C., 30 minutes; read-out: Gyrase inhibitory activity IC50 (converted)
T4 construct: purchased John Innes Enterprises #K0001
Method: As a kit for measurement of DNA gyrase of Escherichia coli, a product purchased from John Innes Enterprises (Gyrase Supercoiling assay kit #K0001) was used. Relaxed DNA was modified with gyrase into supercoiled DNA, and reaction products were separated by electrophoresis depending on the sizes of the molecular weights to examine anti-gyrase effects (IC50). One unit (1 U) of DNA gyrase and […] of relaxed pBR322 DNA were added to […] of the reaction solution, and the mixture was allowed to react at 37° C. for 30 minutes in the presence of 35 mM Tris-HCl (pH 7.5), 24 mM KCl, 4 mM MgCl2, 2 mM DTT, 1.8 mM spermidine, 1 mM ATP, 6.5% (w/v) glycerol, and 0.1 mg/ml BSA. The reactions were stopped using […] of a reaction stop solution (40% sucrose, 100 mM Tris-HCl (pH 7.5), 1 mM EDTA, 0.5 mg/ml bromophenol blue).

T1 sequence (P0AES4 whole entry, one chain of several): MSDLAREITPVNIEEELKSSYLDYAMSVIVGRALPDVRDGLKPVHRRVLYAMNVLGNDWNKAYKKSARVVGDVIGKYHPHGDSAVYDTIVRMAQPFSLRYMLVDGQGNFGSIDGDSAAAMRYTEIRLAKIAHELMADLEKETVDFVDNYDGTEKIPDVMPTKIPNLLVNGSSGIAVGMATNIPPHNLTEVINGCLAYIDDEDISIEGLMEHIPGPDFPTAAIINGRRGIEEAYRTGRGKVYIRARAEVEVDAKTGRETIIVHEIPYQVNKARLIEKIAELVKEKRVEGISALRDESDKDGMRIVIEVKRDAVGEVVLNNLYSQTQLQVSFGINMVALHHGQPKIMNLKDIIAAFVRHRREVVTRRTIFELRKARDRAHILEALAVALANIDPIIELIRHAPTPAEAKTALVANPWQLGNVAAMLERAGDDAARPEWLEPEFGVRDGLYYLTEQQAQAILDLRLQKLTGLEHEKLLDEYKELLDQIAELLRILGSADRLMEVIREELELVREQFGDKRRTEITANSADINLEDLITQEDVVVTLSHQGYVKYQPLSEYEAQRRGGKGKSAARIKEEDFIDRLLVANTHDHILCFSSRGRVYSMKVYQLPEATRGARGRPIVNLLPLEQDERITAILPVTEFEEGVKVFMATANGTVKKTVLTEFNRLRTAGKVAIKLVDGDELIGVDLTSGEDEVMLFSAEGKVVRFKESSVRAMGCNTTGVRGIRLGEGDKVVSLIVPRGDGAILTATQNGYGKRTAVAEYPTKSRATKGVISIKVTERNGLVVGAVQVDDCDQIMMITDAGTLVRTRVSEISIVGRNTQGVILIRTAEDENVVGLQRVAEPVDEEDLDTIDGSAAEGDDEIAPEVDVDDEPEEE
T3 sequence (P0C1U9 whole entry): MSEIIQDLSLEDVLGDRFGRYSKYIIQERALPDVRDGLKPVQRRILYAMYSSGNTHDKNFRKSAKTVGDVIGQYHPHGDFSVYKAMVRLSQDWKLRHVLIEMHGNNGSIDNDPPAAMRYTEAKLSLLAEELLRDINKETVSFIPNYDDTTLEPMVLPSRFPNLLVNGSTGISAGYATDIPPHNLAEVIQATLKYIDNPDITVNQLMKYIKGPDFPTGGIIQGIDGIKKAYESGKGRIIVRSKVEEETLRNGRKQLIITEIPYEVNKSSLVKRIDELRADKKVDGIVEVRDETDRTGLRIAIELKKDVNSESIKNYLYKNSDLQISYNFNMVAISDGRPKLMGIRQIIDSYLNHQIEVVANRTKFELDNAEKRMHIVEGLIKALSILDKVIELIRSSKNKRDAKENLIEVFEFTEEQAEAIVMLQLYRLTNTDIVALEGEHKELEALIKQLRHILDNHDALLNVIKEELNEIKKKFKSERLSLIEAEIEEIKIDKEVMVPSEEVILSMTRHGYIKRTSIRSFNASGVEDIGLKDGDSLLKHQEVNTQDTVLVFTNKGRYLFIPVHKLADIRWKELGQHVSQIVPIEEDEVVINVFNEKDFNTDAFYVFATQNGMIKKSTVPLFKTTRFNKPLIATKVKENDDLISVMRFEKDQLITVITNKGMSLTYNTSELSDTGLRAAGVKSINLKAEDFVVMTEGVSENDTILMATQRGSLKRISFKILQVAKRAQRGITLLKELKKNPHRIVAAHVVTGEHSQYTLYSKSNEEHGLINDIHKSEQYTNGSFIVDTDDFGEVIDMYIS
T3 sequence (P0C1S7 whole entry): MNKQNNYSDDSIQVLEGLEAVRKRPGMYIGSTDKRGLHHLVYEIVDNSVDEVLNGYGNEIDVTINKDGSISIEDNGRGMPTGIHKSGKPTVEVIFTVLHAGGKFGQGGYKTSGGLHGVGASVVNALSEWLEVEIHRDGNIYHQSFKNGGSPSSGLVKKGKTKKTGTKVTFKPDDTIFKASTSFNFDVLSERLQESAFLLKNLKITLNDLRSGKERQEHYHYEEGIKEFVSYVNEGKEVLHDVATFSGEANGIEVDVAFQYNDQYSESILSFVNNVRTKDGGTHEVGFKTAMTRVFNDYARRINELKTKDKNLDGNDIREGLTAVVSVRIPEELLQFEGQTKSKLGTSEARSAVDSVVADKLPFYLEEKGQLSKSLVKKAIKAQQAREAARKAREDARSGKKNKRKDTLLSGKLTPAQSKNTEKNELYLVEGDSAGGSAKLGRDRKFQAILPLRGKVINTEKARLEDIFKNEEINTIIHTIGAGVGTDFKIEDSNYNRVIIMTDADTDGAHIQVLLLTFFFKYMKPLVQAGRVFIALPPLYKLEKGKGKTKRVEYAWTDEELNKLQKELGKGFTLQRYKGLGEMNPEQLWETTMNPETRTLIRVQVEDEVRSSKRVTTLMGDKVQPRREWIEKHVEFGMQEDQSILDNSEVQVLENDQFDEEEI
T2 sequence (P20083 whole entry): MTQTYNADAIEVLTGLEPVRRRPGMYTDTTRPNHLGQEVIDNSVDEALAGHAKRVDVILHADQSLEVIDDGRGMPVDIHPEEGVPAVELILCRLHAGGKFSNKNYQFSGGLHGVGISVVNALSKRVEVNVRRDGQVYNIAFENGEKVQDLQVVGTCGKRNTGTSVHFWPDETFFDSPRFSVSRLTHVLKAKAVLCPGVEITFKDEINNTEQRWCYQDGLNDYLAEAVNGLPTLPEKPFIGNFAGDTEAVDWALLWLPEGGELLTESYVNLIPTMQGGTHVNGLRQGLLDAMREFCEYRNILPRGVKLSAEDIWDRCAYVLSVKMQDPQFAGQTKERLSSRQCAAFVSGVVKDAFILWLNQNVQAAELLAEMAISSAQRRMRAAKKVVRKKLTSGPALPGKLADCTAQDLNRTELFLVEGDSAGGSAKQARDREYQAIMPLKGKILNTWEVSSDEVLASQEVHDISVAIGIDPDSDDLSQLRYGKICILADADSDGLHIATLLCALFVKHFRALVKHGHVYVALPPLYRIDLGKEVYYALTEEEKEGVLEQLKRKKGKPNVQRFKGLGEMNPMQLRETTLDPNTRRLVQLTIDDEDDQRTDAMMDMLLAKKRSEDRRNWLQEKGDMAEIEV
T2 sequence (P0AFI2 whole entry): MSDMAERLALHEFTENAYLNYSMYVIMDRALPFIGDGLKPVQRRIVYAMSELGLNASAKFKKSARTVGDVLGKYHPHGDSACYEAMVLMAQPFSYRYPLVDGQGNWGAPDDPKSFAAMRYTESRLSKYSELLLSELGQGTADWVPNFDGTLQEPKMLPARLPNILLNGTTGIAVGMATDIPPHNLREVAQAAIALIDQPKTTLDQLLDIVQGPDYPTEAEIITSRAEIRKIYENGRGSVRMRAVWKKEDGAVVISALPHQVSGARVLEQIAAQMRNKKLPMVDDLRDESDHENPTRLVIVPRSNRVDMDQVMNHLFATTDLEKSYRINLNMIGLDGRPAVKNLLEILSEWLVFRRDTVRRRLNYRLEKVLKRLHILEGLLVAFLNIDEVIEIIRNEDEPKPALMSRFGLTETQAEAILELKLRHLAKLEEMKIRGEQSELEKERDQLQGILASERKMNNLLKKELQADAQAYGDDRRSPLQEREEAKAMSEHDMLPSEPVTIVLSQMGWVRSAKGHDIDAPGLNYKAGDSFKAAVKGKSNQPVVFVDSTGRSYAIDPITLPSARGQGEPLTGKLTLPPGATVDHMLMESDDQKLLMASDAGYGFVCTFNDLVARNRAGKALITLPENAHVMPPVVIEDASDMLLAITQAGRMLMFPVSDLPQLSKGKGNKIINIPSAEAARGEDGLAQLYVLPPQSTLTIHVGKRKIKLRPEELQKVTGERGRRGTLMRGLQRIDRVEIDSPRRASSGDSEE
T4 sequence (P0AES4 whole entry, one chain of several): as the sequence (P0AES4 whole entry, one chain of several) above

SMILES | MIC [1] [µg/mL] | MIC [2] [µg/mL] | MIC [3] [µg/mL] | MIC [4] [µg/mL] | MIC [5] [µg/mL] | MIC [6] [µg/mL] | MIC [7] [µg/mL] | MIC [8] [µg/mL] | MIC [9] [µg/mL] | MIC (Escherichia coli K-12) [µg/mL] | MIC [10] [µg/mL] | pIC50 (E. coli DNA gyrase) | pIC50 [11] | pIC50 [12] | melting point [°C] | other results
O=C(CCc1ccc(O)cc1)OC[C@H]1O[C@@H](Oc2c(-c3ccc(O)c(O)c3)oc3cc(O)cc(O)c3c2=O)[C@H](OC(=O)CCc2ccc(O)cc2)[C@@H](O)[C@H]1O [Compound 14f, 2-(3′,4′-Dihydroxyphenyl)-5,7-dihydroxy-3-β-D-{2″,6″-di-O-[3′″-(4-hydroxyphenylpropanoyl)]}galactosyl-4H-chromen-4-one] | 2 (≈ 2.63 µM) | 4 (≈ 5.26 µM) | 4 (≈ 5.26 µM) | 2 (≈ 2.63 µM) | 4 (≈ 5.26 µM) | 2 (≈ 2.63 µM) | 1 (≈ 1.31 µM) | 1 (≈ 1.31 µM) | 4 (≈ 5.26 µM) | > 128 | > 128 | 5.62 | 5.05 | 5.80 | 149 to 150 | –
Cc1ccc(CC(=O)OC[C@H]2O[C@@H](Oc3c(-c4ccc(O)c(O)c4)oc4cc(O)cc(O)c4c3=O)[C@H](OC(=O)Cc3ccc(C)cc3)[C@@H](O)[C@H]2O)cc1 [Compound 14d, 2-(3′,4′-Dihydroxyphenyl)-5,7-dihydroxy-3-β-D-[2″,6″-di-O-(4-methylphenylacetyl)]galactosyl-4H-chromen-4-one] | 4 (≈ 5.49 µM) | 8 (≈ 11 µM) | 4 (≈ 5.49 µM) | 4 (≈ 5.49 µM) | 16 (≈ 22 µM) | 8 (≈ 11 µM) | 2 (≈ 2.74 µM) | 2 (≈ 2.74 µM) | 2 (≈ 2.74 µM) | > 128 | > 128 | 5.66 | 5.07 | 5.57 | 125 to 127 | –
CCOc1ccc(C(=O)OC[C@H]2O[C@@H](Oc3c(-c4ccc(O)c(O)c4)oc4cc(O)cc(O)c4c3=O)[C@H](OC(=O)c3ccc(OCC)cc3)[C@@H](O)[C@H]2O)cc1 [Compound 14a, 2-(3″,4″-Dihydroxyphenyl)-5,7-dihydroxy-3-β-D-[2″,6″-di-O-(4-ethoxybenzoyl)]galactosyl-4H-chromen-4-one] | 4 (≈ 5.26 µM) | 8 (≈ 10.5 µM) | 8 (≈ 10.5 µM) | 4 (≈ 5.26 µM) | 16 (≈ 21 µM) | 8 (≈ 10.5 µM) | 4 (≈ 5.26 µM) | 4 (≈ 5.26 µM) | 4 (≈ 5.26 µM) | > 128 | > 128 | 6.37 | 5.13 | 5.75 | 108 to 110 | –
CC(=O)OC[C@H]1O[C@@H](Oc2c(-c3ccc(O)c(O)c3)oc3cc(O)cc(O)c3c2=O)[C@H](OC(C)=O)[C@@H](OC(C)=O)[C@@H]1OC(C)=O [Compound 16, 2-(3′4′-Dihydroxy)-5,7-dihydroxy-3-β-D-tetraacetylglucosyl-4H-chromen-4-one] | – | – | – | – | – | – | – | – | – | – | – | – | – | – | 109 to 110 | MIC (MRSA N315): 128 µg/mL (≈ 202 µM); MIC (MRSA OM481): 128 µg/mL (≈ 202 µM); MIC (MRSA OM58): 128 µg/mL (≈ 202 µM); MIC (MSSA FDA 209P): 128 µg/mL (≈ 202 µM); MIC (VISA Mu50): > 128 µg/mL; MIC (VRE FN-1): > 128 µg/mL; MIC (VRE NCTC12201): > 128 µg/mL; IC50 [13]: > 19 µM
CCCc1ccc(C(=O)OC[C@H]2O[C@@H](Oc3c(-c4ccc(O)c(O)c4)oc4cc(O)cc(O)c4c3=O)[C@H](OC(=O)c3ccc(CCC)cc3)[C@@H](O)[C@H]2O)cc1 [Compound 14b] | 4 (≈ 5.29 µM) | 8 (≈ 10.6 µM) | 4 (≈ 5.29 µM) | 2 (≈ 2.64 µM) | 16 (≈ 21.1 µM) | 2 (≈ 2.64 µM) | 4 (≈ 5.29 µM) | 4 (≈ 5.29 µM) | 2 (≈ 2.64 µM) | > 128 | > 128 | 6.11 | 5.05 | 5.71 | 150 to 151 | –
